Reference: patent publication US20240398811A1, “PRC2 INHIBITORS FOR USE IN TREATING BLOOD DISORDERS” (ORIC Pharmaceuticals, Inc., priority 2021, published 2024)

Biological target: purified human, His-tagged PRC2 complex (Homo sapiens (Human), UniProt O75530)
Assay: Hot Spot HMT assay, inhibition of PRC2 enzymatic activity
Format: biochemical
Conditions: 10 nM PRC2 complex, 1 μM 3H-SAM, core histone H3, 10-point dose-response
In short: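 Five-subunit PRC2 complex (EZH2, EED, SUZ12, AEBP2, RbAp48; 10 nM) preincubated 20 min at 30° C with compound (top 1.0 μM) and 0.05 mg/ml core histone H3 in Tris-HCl, 1% DMSO. Started with 1 μM [3H]SAM, 1 hr at 30° C; tritiated H3 measured by filter binding and scintillation.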

Chain of purified human, His-tagged PRC2 complex (O75530 whole entry): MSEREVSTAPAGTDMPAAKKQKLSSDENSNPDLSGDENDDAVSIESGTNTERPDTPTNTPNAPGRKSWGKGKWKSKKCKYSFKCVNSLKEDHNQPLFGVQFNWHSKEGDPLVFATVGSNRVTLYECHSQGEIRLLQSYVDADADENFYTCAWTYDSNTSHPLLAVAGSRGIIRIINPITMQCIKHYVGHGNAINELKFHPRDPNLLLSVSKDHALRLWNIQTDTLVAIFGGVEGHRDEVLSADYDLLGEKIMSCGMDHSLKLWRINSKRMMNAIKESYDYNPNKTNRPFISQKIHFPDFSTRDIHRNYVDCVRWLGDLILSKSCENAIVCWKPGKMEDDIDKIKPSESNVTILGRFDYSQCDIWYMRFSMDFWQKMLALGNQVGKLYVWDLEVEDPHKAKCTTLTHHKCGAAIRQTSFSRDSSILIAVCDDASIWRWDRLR
Chain of purified human, His-tagged PRC2 complex (Q15910 whole entry partner): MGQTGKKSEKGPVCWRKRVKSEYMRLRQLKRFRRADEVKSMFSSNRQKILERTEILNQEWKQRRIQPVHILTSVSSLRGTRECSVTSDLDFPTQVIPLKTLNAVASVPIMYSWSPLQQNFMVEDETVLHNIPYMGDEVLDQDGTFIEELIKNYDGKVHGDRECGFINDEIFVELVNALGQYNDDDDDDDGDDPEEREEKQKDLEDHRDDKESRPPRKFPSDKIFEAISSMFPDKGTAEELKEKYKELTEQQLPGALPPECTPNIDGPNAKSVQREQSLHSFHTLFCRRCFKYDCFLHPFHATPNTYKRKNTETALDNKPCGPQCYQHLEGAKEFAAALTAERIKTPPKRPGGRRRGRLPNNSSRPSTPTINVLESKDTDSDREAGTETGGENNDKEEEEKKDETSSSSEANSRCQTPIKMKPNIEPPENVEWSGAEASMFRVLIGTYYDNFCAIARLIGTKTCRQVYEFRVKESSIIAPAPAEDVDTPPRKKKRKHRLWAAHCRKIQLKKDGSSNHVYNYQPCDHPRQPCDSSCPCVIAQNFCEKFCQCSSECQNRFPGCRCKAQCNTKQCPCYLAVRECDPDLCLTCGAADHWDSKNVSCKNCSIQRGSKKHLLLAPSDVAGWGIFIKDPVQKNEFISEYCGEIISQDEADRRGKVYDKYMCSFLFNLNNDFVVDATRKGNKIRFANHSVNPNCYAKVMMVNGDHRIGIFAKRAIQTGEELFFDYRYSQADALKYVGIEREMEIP
Chain of purified human, His-tagged PRC2 complex (Q15022 whole entry partner): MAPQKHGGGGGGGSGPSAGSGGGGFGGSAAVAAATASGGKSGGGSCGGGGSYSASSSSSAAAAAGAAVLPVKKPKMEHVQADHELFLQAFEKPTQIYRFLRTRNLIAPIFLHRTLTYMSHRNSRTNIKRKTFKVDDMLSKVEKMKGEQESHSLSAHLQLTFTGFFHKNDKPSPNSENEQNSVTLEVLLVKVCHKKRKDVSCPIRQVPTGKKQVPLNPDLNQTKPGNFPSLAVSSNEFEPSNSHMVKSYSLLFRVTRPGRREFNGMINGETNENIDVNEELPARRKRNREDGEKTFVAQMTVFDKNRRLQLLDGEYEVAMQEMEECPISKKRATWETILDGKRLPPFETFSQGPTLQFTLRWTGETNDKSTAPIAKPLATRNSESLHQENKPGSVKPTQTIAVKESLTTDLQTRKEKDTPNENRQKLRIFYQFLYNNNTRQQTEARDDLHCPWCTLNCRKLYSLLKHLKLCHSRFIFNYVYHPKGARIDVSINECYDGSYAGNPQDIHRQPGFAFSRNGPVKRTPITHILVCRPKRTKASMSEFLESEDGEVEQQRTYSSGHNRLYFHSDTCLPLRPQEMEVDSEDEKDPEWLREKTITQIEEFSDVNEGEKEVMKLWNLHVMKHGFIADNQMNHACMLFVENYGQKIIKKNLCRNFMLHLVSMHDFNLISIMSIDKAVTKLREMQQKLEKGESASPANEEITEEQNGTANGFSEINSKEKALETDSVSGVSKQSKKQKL
Chain of purified human, His-tagged PRC2 complex (Q6ZN18 whole entry partner): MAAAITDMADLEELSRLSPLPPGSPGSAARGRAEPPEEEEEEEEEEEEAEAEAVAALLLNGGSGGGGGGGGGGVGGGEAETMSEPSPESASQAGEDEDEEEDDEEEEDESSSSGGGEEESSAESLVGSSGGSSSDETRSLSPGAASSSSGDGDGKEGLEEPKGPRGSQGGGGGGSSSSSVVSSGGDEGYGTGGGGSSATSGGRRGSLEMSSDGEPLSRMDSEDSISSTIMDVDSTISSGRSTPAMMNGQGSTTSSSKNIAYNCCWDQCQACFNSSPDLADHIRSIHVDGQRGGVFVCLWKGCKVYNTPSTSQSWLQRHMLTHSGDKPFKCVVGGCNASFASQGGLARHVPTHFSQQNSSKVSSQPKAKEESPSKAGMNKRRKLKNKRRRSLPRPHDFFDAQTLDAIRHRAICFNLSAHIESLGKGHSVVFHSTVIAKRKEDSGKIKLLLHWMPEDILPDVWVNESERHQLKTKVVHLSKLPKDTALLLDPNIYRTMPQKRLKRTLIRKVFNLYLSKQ
Chain of purified human, His-tagged PRC2 complex (Q09028 whole entry partner): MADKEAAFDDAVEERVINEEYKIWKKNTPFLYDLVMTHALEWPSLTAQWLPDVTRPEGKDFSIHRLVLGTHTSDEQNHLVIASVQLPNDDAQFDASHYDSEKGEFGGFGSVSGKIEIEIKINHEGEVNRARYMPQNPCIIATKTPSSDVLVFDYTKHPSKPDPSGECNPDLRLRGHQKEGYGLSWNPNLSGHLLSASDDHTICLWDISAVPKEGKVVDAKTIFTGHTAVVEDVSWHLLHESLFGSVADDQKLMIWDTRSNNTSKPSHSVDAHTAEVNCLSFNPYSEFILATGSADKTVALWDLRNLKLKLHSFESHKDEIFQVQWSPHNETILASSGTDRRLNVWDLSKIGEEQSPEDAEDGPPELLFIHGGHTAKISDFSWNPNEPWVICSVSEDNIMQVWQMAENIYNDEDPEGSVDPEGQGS

Row | IC50 [nM] | Compound
1 | < 100 | COc1cc(-c2cnc(NCc3c(F)ccc4c3CCO4)n3cc(C#N)nc23)c(F)cn1 [Example 123, 5-(((5-fluoro-2,3-dihydrobenzofuran-4-yl)methyl)amino)-8-(5-fluoro-2-methoxypyridin-4-yl)imidazo[1,2-c]pyrimidine-2-carbonitrile]
2 | < 100 | CCOc1ncccc1-c1cnc(NCc2c(F)ccc3c2CCO3)n2cc(C#N)nc12 [Example 124, 8-(2-ethoxypyridin-3-yl)-5-(((5-fluoro-2,3-dihydrobenzofuran-4-yl)methyl)amino)imidazo[1,2-c]pyrimidine-2-carbonitrile]
3 | < 100 | COc1cc(-c2cnc(NCc3c(F)ccc4c3CCO4)n3cc(C#N)nc23)c(OC)cn1 [Example 125, 8-(2,5-dimethoxypyridin-4-yl)-5-(((5-fluoro-2,3-dihydrobenzofuran-4-yl)methyl)amino)imidazo[1,2-c]pyrimidine-2-carbonitrile]
4 | 100 to 500 | N#Cc1cn2c(NCc3c(F)ccc4c3CCO4)ncc(-c3ccc(C(F)(F)F)nc3)c2n1 [Example 126, 5-(((5-fluoro-2,3-dihydrobenzofuran-4-yl)methyl)amino)-8-(6-(trifluoromethyl)pyridin-3-yl)imidazo[1,2-c]pyrimidine-2-carbonitrile]
5 | < 100 | N#Cc1cn2c(NCc3c(F)ccc4c3CCO4)ncc(-c3ccc(N)nc3)c2n1 [Example 127, 8-(6-aminopyridin-3-yl)-5-(((5-fluoro-2,3-dihydrobenzofuran-4-yl)methyl)amino)imidazo[1,2-c]pyrimidine-2-carbonitrile]
6 | < 100 | N#Cc1ccc(-c2cnc(NCc3c(F)ccc4c3CCO4)n3cc(C#N)nc23)cn1 [Example 128, 8-(6-cyanopyridin-3-yl)-5-(((5-fluoro-2,3-dihydrobenzofuran-4-yl)methyl)amino)imidazo[1,2-c]pyrimidine-2-carbonitrile]
7 | < 100 | Cc1ncc(-c2cnc(NCc3c(F)ccc4c3CCO4)n3cc(C#N)nc23)cc1N [Example 129, 8-(5-amino-6-methylpyridin-3-yl)-5-(((5-fluoro-2,3-dihydrobenzofuran-4-yl)methyl)amino)imidazo[1,2-c]pyrimidine-2-carbonitrile]
8 | 100 to 500 | COc1ncc(-c2cnc(NCc3c(F)ccc4c3CCO4)n3cc(C#N)nc23)cc1C#N [Example 130, 8-(5-cyano-6-methoxypyridin-3-yl)-5-(((5-fluoro-2,3-dihydrobenzofuran-4-yl)methyl)amino)imidazo[1,2-c]pyrimidine-2-carbonitrile]
9 | < 100 | CC(=O)Nc1cc(-c2cnc(NCc3c(F)ccc4c3CCO4)n3cc(C#N)nc23)ccn1 [Example 131, N-(4-(2-cyano-5-(((5-fluoro-2,3-dihydrobenzofuran-4-yl)methyl)amino)imidazo[1,2-c]pyrimidin-8-yl)pyridin-2-yl)acetamide]
10 | > 500 | N#Cc1cn2c(NCc3c(F)ccc4c3CCO4)ncc(-c3cncc(C(F)(F)F)c3)c2n1 [Example 132, 5-(((5-fluoro-2,3-dihydrobenzofuran-4-yl)methyl)amino)-8-(5-(trifluoromethyl)pyridin-3-yl)imidazo[1,2-c]pyrimidine-2-carbonitrile]
11 | < 100 | CC(C)Oc1ccc(-c2cnc(NCc3c(F)ccc4c3CCO4)n3cc(C#N)nc23)cn1 [Example 133, 5-(((5-fluoro-2,3-dihydrobenzofuran-4-yl)methyl)amino)-8-(6-isopropoxypyridin-3-yl)imidazo[1,2-c]pyrimidine-2-carbonitrile]
12 | 100 to 500 | N#Cc1cn2c(NCc3c(F)ccc4c3CCO4)ncc(-c3cnc(N)c(C(F)(F)F)c3)c2n1 [Example 134, 8-(6-amino-5-(trifluoromethyl)pyridin-3-yl)-5-(((5-fluoro-2,3-dihydrobenzofuran-4-yl)methyl)amino)imidazo[1,2-c]pyrimidine-2-carbonitrile]
13 | < 100 | N#Cc1cn2c(NCc3c(F)ccc4c3CCO4)ncc(-c3ccc(N4CCCCC4)nc3)c2n1 [Example 135, 5-(((5-fluoro-2,3-dihydrobenzofuran-4-yl)methyl)amino)-8-(6-(piperidin-1-yl)pyridin-3-yl)imidazo[1,2-c]pyrimidine-2-carbonitrile]
14 | 100 to 500 | Cc1nc(N2CCN(C)CC2)ccc1-c1cnc(NCc2c(F)ccc3c2CCO3)n2cc(C#N)nc12 [Example 136, 5-(((5-fluoro-2,3-dihydrobenzofuran-4-yl)methyl)amino)-8-(2-methyl-6-(4-methylpiperazin-1-yl)pyridin-3-yl)imidazo[1,2-c]pyrimidine-2-carbonitrile]
15 | < 100 | Cc1ncccc1-c1cnc(NCc2c(F)ccc3c2CCO3)n2cc(C(N)=O)nc12 [Example 137, 5-(((5-fluoro-2,3-dihydrobenzofuran-4-yl)methyl)amino)-8-(2-methylpyridin-3-yl)imidazo[1,2-c]pyrimidine-2-carboxamide]
16 | < 100 | Cc1nc(N2CCN(C)CC2)ccc1-c1cnc(NCc2c(F)ccc3c2CCO3)n2cc(C(N)=O)nc12 [Example 138, 5-(((5-fluoro-2,3-dihydrobenzofuran-4-yl)methyl)amino)-8-(2-methyl-6-(4-methylpiperazin-1-yl)pyridin-3-yl)imidazo[1,2-c]pyrimidine-2-carboxamide]
17 | > 500 | N#Cc1cn2c(NCc3c(F)ccc4c3CCO4)ncc(C3CCOCC3)c2n1 [Example 141, 5-(((5-fluoro-2,3-dihydrobenzofuran-4-yl)methyl)amino)-8-(tetrahydro-2H-pyran-4-yl)imidazo[1,2-c]pyrimidine-2-carbonitrile]
18 | < 100 | N#Cc1cn2c(NCc3c(F)ccc4c3CCO4)ncc(-c3cccnn3)c2n1 [Example 142, 5-(((5-fluoro-2,3-dihydrobenzofuran-4-yl)methyl)amino)-8-(pyridazin-3-yl)imidazo[1,2-c]pyrimidine-2-carbonitrile]
19 | < 100 | Cn1nncc1-c1cnc(NCc2c(F)ccc3c2CCO3)n2cc(C#N)nc12 [Example 143, 5-(((5-fluoro-2,3-dihydrobenzofuran-4-yl)methyl)amino)-8-(1-methyl-1H-1,2,3-triazol-5-yl)imidazo[1,2-c]pyrimidine-2-carbonitrile]
20 | < 100 | Cn1nc(C2CC2)cc1-c1cnc(NCc2c(F)ccc3c2CCO3)n2cc(C#N)nc12 [Example 144, 8-(3-cyclopropyl-1-methyl-1H-pyrazol-5-yl)-5-(((5-fluoro-2,3-dihydrobenzofuran-4-yl)methyl)amino)imidazo[1,2-c]pyrimidine-2-carbonitrile]
21 | 100 to 500 | Cc1nc(-c2cnc(NCc3c(F)ccc4c3CCO4)n3cc(C#N)nc23)c(C)s1 [Example 145, 8-(2,5-dimethylthiazol-4-yl)-5-(((5-fluoro-2,3-dihydrobenzofuran-4-yl)methyl)amino)imidazo[1,2-c]pyrimidine-2-carbonitrile]
22 | 100 to 500 | N#Cc1cn2c(NCc3c(F)ccc4c3CCO4)ncc(-c3ccccn3)c2n1 [Example 146, 5-(((5-fluoro-2,3-dihydrobenzofuran-4-yl)methyl)amino)-8-(pyridin-2-yl)imidazo[1,2-c]pyrimidine-2-carbonitrile]
23 | 100 to 500 | N#Cc1cn2c(NCc3c(F)ccc4c3CCO4)ncc(-c3ccc(CO)nc3)c2n1 [Example 147, 5-(((5-fluoro-2,3-dihydrobenzofuran-4-yl)methyl)amino)-8-(6-(hydroxymethyl)pyridin-3-yl)imidazo[1,2-c]pyrimidine-2-carbonitrile]
